Assay results from US20240228504A1, “SUBSTITUTED TRICYCLIC AMIDES, ANALOGUES THEREOF, AND METHODS USING SAME” (Arbutus Biopharma Corporation, priority 2020, published 2024).

test system: HBV rcDNA in HepDE19 cells; test: HepDE19 assay with bDNA quantitation of HBV rcDNA; assay type: cell-based, hepatitis B virus; conditions: Hepatitis B virus, HepDE19, HepDE19 assay, inhibition of rcDNA formation, bDNA quantitation; read-out: DE-19bDNA EC50

Compound	EC50
CN(C(=O)c1ccc(F)c(Br)c1)[C@@H]1COCc2[nH]c(=O)c3cc(F)c(F)cc3c21 [Compound 130, (S)-3-Bromo-N-(8,9-difluoro-6-oxo-1,4,5,6-tetrahydro-2H-pyrano[3,4-c]isoquinolin-1-yl)-4-fluoro-N-methylbenzamide]	10 nM
CN(C(=O)c1ccc(Br)cc1)[C@@H]1COCc2[nH]c(=O)c3cc(F)c(F)cc3c21 [Compound 131, (S)-4-Bromo-N-(8,9-difluoro-6-oxo-1,4,5,6-tetrahydro-2H-pyrano[3,4-c]isoquinolin-1-yl)-N-methylbenzamide]	10 nM
CN(C(=O)c1cccc(C#N)c1)[C@@H]1COCc2[nH]c(=O)c3cc(F)c(F)cc3c21 [Compound 135, (S)-3-Cyano-N-(8,9-difluoro-6-oxo-1,4,5,6-tetrahydro-2H-pyrano[3,4-c]isoquinolin-1-yl)-N-methylbenzamide]	770 nM
CN(C(=O)c1ccc(OC(F)(F)F)c(F)c1)[C@@H]1COCc2[nH]c(=O)c3cc(F)c(F)cc3c21 [Compound 136, (S)-N-(8,9-Difluoro-6-oxo-1,4,5,6-tetrahydro-2H-pyrano[3,4-c]isoquinolin-1-yl)-3-fluoro-N-methyl-4-(trifluoromethoxy)benzamide]	40 nM
Cc1ccc(C(=O)N(C)[C@@H]2COCc3[nH]c(=O)c4cc(F)c(F)cc4c32)cc1F [Compound 137, (S)-N-(8,9-Difluoro-6-oxo-1,4,5,6-tetrahydro-2H-pyrano[3,4-c]isoquinolin-1-yl)-3-fluoro-N,4-dimethylbenzamide]	60 nM
CN(C(=O)[C@H](O)c1cccc(Cl)c1)[C@@H]1COCc2[nH]c(=O)c3cc(F)c(F)cc3c21 [Compound 138, (R)-2-(3-Chlorophenyl)-N-((S)-8,9-difluoro-6-oxo-1,4,5,6-tetrahydro-2H-pyrano[3,4-c]isoquinolin-1-yl)-2-hydroxy-N-methylacetamide]	1200 nM
CN(C(=O)c1cc(F)c(C(F)(F)F)c(F)c1)[C@@H]1COCc2[nH]c(=O)c3cc(F)c(F)cc3c21 [Compound 139, (S)-N-(8,9-Difluoro-6-oxo-1,4,5,6-tetrahydro-2H-pyrano[3,4-c]isoquinolin-1-yl)-3,5-difluoro-N-methyl-4-(trifluoromethyl)benzamide]	10 nM
CN(C(=O)c1csc(Cl)c1)[C@@H]1COCc2[nH]c(=O)c3cc(F)c(F)cc3c21 [Compound 140, (S)-5-Chloro-N-(8,9-difluoro-6-oxo-1,4,5,6-tetrahydro-2H-pyrano[3,4-c]isoquinolin-1-yl)-N-methylthiophene-3-carboxamide]	100 nM
CN([C@@H]1COCc2[nH]c(=O)c3cc(F)c(F)cc3c21)S(=O)(=O)c1ccc(F)c(Cl)c1 [Compound 143, (S)-3-Chloro-N-(8,9-difluoro-6-oxo-1,4,5,6-tetrahydro-2H-pyrano[3,4-c]isoquinolin-1-yl)-4-fluoro-N-methylbenzenesulfonamide]	18000 nM
CN([C@@H]1COCc2[nH]c(=O)c3cc(F)c(F)cc3c21)S(=O)(=O)c1cccc(Cl)c1 [Compound 144, (S)-3-Chloro-N-(8,9-difluoro-6-oxo-1,4,5,6-tetrahydro-2H-pyrano[3,4-c]isoquinolin-1-yl)-N-methylbenzenesulfonamide]	12000 nM
CN([C@@H]1COCc2[nH]c(=O)c3cc(F)c(F)cc3c21)S(=O)(=O)c1cccc(C#N)c1 [Compound 145, (S)-3-Cyano-N-(8,9-difluoro-6-oxo-1,4,5,6-tetrahydro-2H-pyrano[3,4-c]isoquinolin-1-yl)-N-methylbenzenesulfonamide]	5500 nM
CN([C@@H]1COCc2[nH]c(=O)c3cc(F)c(F)cc3c21)S(=O)(=O)c1ccc(F)c(C#N)c1 [Compound 146, (S)-3-Cyano-N-(8,9-difluoro-6-oxo-1,4,5,6-tetrahydro-2H-pyrano[3,4-c]isoquinolin-1-yl)-4-fluoro-N-methylbenzenesulfonamide]	23000 nM
CCc1ccc(C(=O)N(C)[C@@H]2COCc3[nH]c(=O)c4cc(F)c(F)cc4c32)cc1F [Compound 147, (S)-N-(8,9-Difluoro-6-oxo-1,4,5,6-tetrahydro-2H-pyrano[3,4-c]isoquinolin-1-yl)-4-ethyl-3-fluoro-N-methylbenzamide]	3300 nM
O=C(N[C@@H]1COCc2[nH]c(=O)c3cc(F)c(F)cc3c21)c1cc2ccccn2c1 [Compound 148, (S)-N-(8,9-Difluoro-6-oxo-1,4,5,6-tetrahydro-2H-pyrano[3,4-c]isoquinolin-1-yl)indolizine-2-carboxamide]	760 nM
CN(C(=O)c1ccc(OC(F)F)c(F)c1)[C@@H]1COCc2[nH]c(=O)c3cc(F)c(F)cc3c21 [Compound 153, (S)-N-(8,9-Difluoro-6-oxo-1,4,5,6-tetrahydro-2H-pyrano[3,4-c]isoquinolin-1-yl)-4-(difluoromethoxy)-3-fluoro-N-methylbenzamide]	150 nM
CN(C(=O)c1ccc(C(C)(C)O)cc1)[C@@H]1COCc2[nH]c(=O)c3cc(F)c(F)cc3c21 [Compound 154, (S)-N-(8,9-Difluoro-6-oxo-1,4,5,6-tetrahydro-2H-pyrano[3,4-c]isoquinolin-1-yl)-4-(2-hydroxypropan-2-yl)-N-methylbenzamide]	1050 nM

Compound	EC50
CN(C(=O)c1cccc(C(C)(C)O)c1)[C@@H]1COCc2[nH]c(=O)c3cc(F)c(F)cc3c21 [Compound 155, (S)-N-(8,9-Difluoro-6-oxo-1,4,5,6-tetrahydro-2H-pyrano[3,4-c]isoquinolin-1-yl)-3-(2-hydroxypropan-2-yl)-N-methylbenzamide]	4490 nM
O=C(N[C@@H]1COCc2[nH]c(=O)c3cc(F)c(F)cc3c21)c1cc2cc(F)c(F)cc2[nH]1 [Compound 156, (S)-N-(8,9-Difluoro-6-oxo-1,4,5,6-tetrahydro-2H-pyrano[3,4-c]isoquinolin-1-yl)-5,6-difluoro-1H-indole-2-carboxamide]	490 nM
O=C(N[C@@H]1COCc2[nH]c(=O)c3cc(F)c(F)cc3c21)c1cc2c(F)cc(F)cc2[nH]1 [Compound 157, (S)-N-(8,9-Difluoro-6-oxo-1,4,5,6-tetrahydro-2H-pyrano[3,4-c]isoquinolin-1-yl)-4,6-difluoro-1H-indole-2-carboxamide]	250 nM
O=C(N[C@@H]1COCc2[nH]c(=O)c3cc(F)c(F)cc3c21)c1ccc(C(F)(F)F)c(F)c1 [Compound 158, (S)-N-(8,9-Difluoro-6-oxo-1,4,5,6-tetrahydro-2H-pyrano[3,4-c]isoquinolin-1-yl)-3-fluoro-4-(trifluoromethyl)benzamide]	580 nM
O=C(N[C@@H]1COCc2[nH]c(=O)c3cc(F)c(F)cc3c21)c1ccc(Cl)c(F)c1 [Compound 159, (S)-4-chloro-N-(8,9-difluoro-6-oxo-1,4,5,6-tetrahydro-2H-pyrano[3,4-c]isoquinolin-1-yl)-3-fluorobenzamide]	660 nM
CN(C(=O)c1cc(F)c(Br)c(F)c1)[C@@H]1COCc2[nH]c(=O)c3cc(F)c(F)cc3c21 [Compound 172, 4-Bromo-N-(8,9-difluoro-6-oxo-2,4,5,6-tetrahydro-1H-pyrano[3,4-c]isoquinolin-1-yl)-3,5-difluoro-N-methylbenzamide]	10 nM
CN(C(=O)c1cc(F)c(Cl)c(F)c1)[C@@H]1COCc2[nH]c(=O)c3cc(F)c(F)cc3c21 [Compound 173, 4-Chloro-N-(8,9-difluoro-6-oxo-2,4,5,6-tetrahydro-1H-pyrano[3,4-c]isoquinolin-1-yl)-3,5-difluoro-N-methylbenzamide]	10 nM
CN(C(=O)c1cc(F)c(C(F)F)c(F)c1)[C@@H]1COCc2[nH]c(=O)c3cc(F)c(F)cc3c21 [Compound 180, (S)-N-(8,9-Difluoro-6-oxo-1,4,5,6-tetrahydro-2H-pyrano[3,4-c]isoquinolin-1-yl)-4-(difluoromethyl)-3,5-difluoro-N-methylbenzamide]	160 nM
CN(C(=O)c1cc2cc(F)c(F)cc2[nH]1)[C@@H]1COC(O)c2[nH]c(=O)c3cc(F)c(F)cc3c21 (stereo partly drawn) [Compound 187, N-((1S)-8,9-Difluoro-4-hydroxy-6-oxo-1,4,5,6-tetrahydro-2H-pyrano[3,4-c]isoquinolin-1-yl)-5,6-difluoro-N-methyl-1H-indole-2-carboxamide]	10 nM
CN(C(=O)c1cnn(C)c1)[C@@H]1COCc2[nH]c(=O)c3cc(F)c(F)cc3c21 [Compound 188, (S)-N-(8,9-Difluoro-6-oxo-1,4,5,6-tetrahydro-2H-pyrano[3,4-c]isoquinolin-1-yl)-N,1-dimethyl-1H-pyrazole-4-carboxamide]	18300 nM
C=C(C(=O)N(C)[C@@H]1COCc2[nH]c(=O)c3cc(F)c(F)cc3c21)c1ccccc1 [Compound 189, (S)-N-(8,9-Difluoro-6-oxo-1,4,5,6-tetrahydro-2H-pyrano[3,4-c]isoquinolin-1-yl)-N-methyl-2-phenylacrylamide]	4400 nM
CN(C(=O)c1cc2cc(F)cnc2[nH]1)[C@@H]1COCc2[nH]c(=O)c3cc(F)c(F)cc3c21 [Compound 190, (S)-N-(8,9-Difluoro-6-oxo-1,4,5,6-tetrahydro-2H-pyrano[3,4-c]isoquinolin-1-yl)-5-fluoro-N-methyl-1H-pyrrolo[2,3-b]pyridine-2-carboxamide]	330 nM
CN(C(=O)c1cc2cc(Cl)cnc2[nH]1)[C@@H]1COCc2[nH]c(=O)c3cc(F)c(F)cc3c21 [Compound 191, (S)-5-Chloro-N-(8,9-difluoro-6-oxo-1,4,5,6-tetrahydro-2H-pyrano[3,4-c]isoquinolin-1-yl)-N-methyl-1H-pyrrolo[2,3-b]pyridine-2-carboxamide]	120 nM
CN(C(=O)c1cc2cc(Br)cnc2[nH]1)[C@@H]1COCc2[nH]c(=O)c3cc(F)c(F)cc3c21 [Compound 192, (S)-5-Bromo-N-(8,9-difluoro-6-oxo-1,4,5,6-tetrahydro-2H-pyrano[3,4-c]isoquinolin-1-yl)-N-methyl-1H-pyrrolo[2,3-b]pyridine-2-carboxamide]	260 nM
CN(C(=O)c1c[nH]c(=O)c(C(F)(F)F)c1)[C@@H]1COCc2[nH]c(=O)c3cc(F)c(F)cc3c21 [Compound 193, (S)-N-(8,9-Difluoro-6-oxo-1,4,5,6-tetrahydro-2H-pyrano[3,4-c]isoquinolin-1-yl)-N-methyl-6-oxo-5-(trifluoromethyl)-1,6-dihydropyridine-3-carboxamide]	3200 nM
